This experiment has as its target T1, Autotaxin enzyme (ATX) (Homo sapiens, UniProt Q13822).
T1 construct: purchased Echelon Biosciences, Inc. E-4000
In words: In vitro ATX assay (enzymatic ATX inhibition, LPC 14:0 substrate, choline oxidase/HRP absorbance readout). It counts as biochemical. Conditions: 0.3 mM LPC 14:0, 37° C., 4 hours, absorbance 555 nm. As for the experimental part:
• Assay buffer: 100 mM Tris-HCl, pH 9.0, 500 mM NaCl, 5 mM MgCl2, 30 μM CoCl2, 0.05% Triton X-100 • Assay buffer II: 4.5 mM 4-AAP, 2.7 mM TOOS, 21.2 U/mL HRP, 3 U/mL CO, In 50 mM Tris-HCl pH 8.0, 4.5 mM MgCl2
A compound preparation plate (Nunc 249944) was prepared by adding 30 mM stock solution (in DMSO) of test compound and performing a serial full-log dilution down to 30 nM. Two μL/well were transferred from the first compound prep plate to a compound dilution plate (Corning, 3641) and 198 μL assay buffer I was added for a […].
A 10 ng/mL solution of ATX was prepared by diluting in assay buffer I, and 80 μL/well were added to the assay plate (Corning, 3641); negative control wells contained 80 μL/well assay buffer I only (no ATX). Ten μL/well from the compound dilution plate (containing serially diluted test compound or DMSO) were added to the assay plate, which was then incubated at 37° C. for 15 minutes. A solution of LPC 14:0 was prepared in assay buffer I at 3 mM and 10 μl/well were added to the assay plate, for a final concentration of 0.3 mM LPC, and returned to 37° C. incubator for 4 hours. After 4 hour incubation, 100 μL/well of assay buffer II was added to all wells of the assay plate. The plate was incubated at RT for 15 minutes, prior to reading on FlexStation in absorbance mode, 555 nm. Results in the enzymatic ATX inhibition assay are provided for compounds of formula (I). An IC50 value of “A” is less than 100 nM, “B” is equal to or greater than 100 nM but less than 1 μM, “C” is equal to or greater than 1 μM.

Structures are written as SMILES. Some results are limits rather than exact numbers.

For the compound `O=C(c1cnc(NCc2cc(OC(F)(F)F)cc(C3CC3)c2)nc1)N1CC(O)C1` [Example 83, (2-((3-cyclopropyl-5-(trifluoromethoxy)benzyl)ami-no)pyrimidin-5-yl)(3-hydroxyazetidin-1-yl)-methanone], the IC50 lay within 100 to 1000 nM. Next, `CC(C)Oc1cc(CNc2ncc(C(=O)N3CCC34COC4)cn2)cc(N2CCC2)c1` [Example 63]: 100 to 1000 nM; `CC(C)(O)C1CCN1C(=O)c1cnc(NCc2cc(OC(F)(F)F)cc(C3CC3)c2)nc1` (stereo not drawn) [Example 115, (2-((3-cyclopropyl-5-(trifluoromethoxy)benzyl)ami-no)pyrimidin-5-yl)(2-(2-hydroxypropan-2-yl)azetidin-1-yl)methanone]: less than 100 nM; `CS(=O)(=O)N1CC2(CCN2C(=O)c2cnc(NC3Cc4ccc(Cl)cc4C3)nc2)C1` (stereo not drawn) [Example 152, (2-((5-Chloro-2,3-dihydro-1H-inden-2-yl)amino)pyrimidin-5-yl)(6-(methylsulfonyl)-1,6-diazaspiro[3.3]heptan-1-yl)methanone]: less than 100 nM. The same measure for `CC(C)c1cc(CNc2cnc(C(=O)N3CCC34COC4)cn2)cc(OC(F)(F)F)c1` [Example 75, (5-((3-Isopropyl-5-(trifluoromethoxy)benzyl)amino)pyrazin-2-yl)(6-oxa-1-azaspiro[3.3]heptan-1-yl)methanone]: less than 100 nM.

`O=C(c1cnc(NCc2cc(OC(F)(F)F)cc(C3CC3)c2)nc1)N1CCC12CS(=O)(=O)C2` [Example 107, (2-((3-cyclopropyl-5-(trifluoromethoxy)benzyl)ami-no)pyrimidin-5-yl)(6,6-dioxido-6-thia-1-azaspiro[3.3]heptan-1-yl)-methanone] returned an IC50 of less than 100 nM. Next, `O=C(c1cnc(NC2Cc3ccc(Cl)cc3C2)nc1)N1CCC12COC2` (stereo not drawn) [Example 33]: less than 100 nM; `O=C(c1cnc(NCc2cc(C3CC3)cc(C(F)(F)F)c2)nc1)N1CCC12COC2` [Example 36]: less than 100 nM; `O=C(c1cnc(NCc2cc(OC(F)(F)F)cc(C3CC3)c2)nc1)N1CCC2COCC21` (stereo not drawn) [Example 111, (2-((3-cyclopropyl-5-(trifluoromethoxy)benzyl)ami-no)pyrimidin-5-yl)(hexahydro-1H-furo[3,4-b]pyrrol-1-yl)methanone]: less than 100 nM.

Compound `CCOc1cc(CNc2ncc(C(=O)N3CCC34COC4)cn2)cc(OC(C)C)c1` [Example 159, (2-((3-Ethoxy-5-isopropoxybenzyl)amino)pyrimidin-5-yl) (6-oxa-1-azaspiro[3.3]heptan-1-yl)methanone] registered an IC50 of less than 100 nM. Next, `O=C(c1cnc(NCc2cc(OC(F)(F)F)cc(C3CC3)c2)nc1)N1CC2(C1)CS(=O)(=O)C2` [Example 106, (2-((3-cyclopropyl-5-(trifluoromethoxy)benzyl)ami-no)pyrimidin-5-yl)(2,2-dioxido-2-thia-6-azaspiro[3.3]heptan-6-yl)methanone]: 100 to 1000 nM; `O=C(c1ccc(NCc2cccc(OC(F)(F)F)c2)nc1)N1CCC12COC2` [Example 73, 6-Oxa-1-azaspiro[3.3]heptan-1-yl(6-((3-(trifluoromethoxy)benzyl)amino)pyridin-3-yl)methanone]: no less than 1000 nM.

Compound `CC(C)Oc1cc(CNc2ncc(C(=O)N3CCC34COC4)cn2)cc(C2CC2)c1` [Example 38] came in with a half-inhibitory concentration (IC50) of less than 100 nM.

With `O=C(c1ccc(NCc2cc(OC(F)(F)F)cc(C3CC3)c2)nc1)N1CCC12COC2` [Example 77, (6-((3-Cyclopropyl-5-(trifluoromethoxy)benzyl)amino)pyridin-3-yl)(6-oxa-1-azaspiro[3.3]heptan-1-yl)methanone], the IC50 is less than 100 nM. With `CC1CC(C)N1C(=O)c1cnc(NCc2cc(OC(F)(F)F)cc(C3CC3)c2)nc1` (single isomer, unassigned) [Example 119, (2-((3-Cyclopropyl-5-(trifluoromethoxy)-benzyl)amino)pyrimidin-5-yl)(2,4-dimethylazetidin-1-yl)methanone], the IC50 was no less than 1000 nM.
